pIC50: −log10 of the molar value.
Legend:
ABCG2 [1] = test: Resistance factor, ratio of IC50 for becatecarin-selected ABCG2-overexpressing human A549/Bec150 cells to IC50 for human A549 cells; assay type: ADME; details: read-out: Ratio IC50
NCI-H460 [2] = test: Chemo-sensitizing activity against human NCI-H460 cells assessed as reversal fold at 1 uM measured after 72 hrs in presence of mitoxantrone by CCK8 assay relative to control; assay type: functional
NCI-H460 [3] = test: Chemo-sensitizing activity against human NCI-H460 cells assessed as reversal fold at 2 uM measured after 72 hrs in presence of mitoxantrone by CCK8 assay relative to control; assay type: functional
NCI-H460 [4] = test: Chemo-sensitizing activity against mitoxantrone-selected ABCG2-overexpressing human NCI-H460/MX20 cells assessed as reversal fold at 1 uM measured after 72 hrs in presence of SN-38 by CCK8 assay relative to control; assay type: functional
NCI/ADR-RES [5] = test: Chemo-sensitizing activity against ABCB1-overexpressing human NCI/ADR-RES cells assessed as reversal fold at 2 uM measured after 72 hrs in presence of paclitaxel by CCK8 assay relative to control; assay type: functional
A549 [6] = test: Chemo-sensitizing activity against becatecarin-selected ABCG2-overexpressing human A549/Bec150 cells assessed as reversal fold at 1 uM measured after 72 hrs in presence of mitoxantrone by CCK8 assay relative to control; assay type: functional
A549 [7] = test: Chemo-sensitizing activity against human A549 cells assessed as reversal fold at 5 uM measured after 72 hrs in presence of topotecan by CCK8 assay relative to control; assay type: functional
A549 [8] = test: Chemo-sensitizing activity against becatecarin-selected ABCG2-overexpressing human A549/Bec150 cells assessed as reversal fold at 1 uM measured after 72 hrs in presence of SN-38 by CCK8 assay relative to control; assay type: functional
A549 [9] = test: Chemo-sensitizing activity against becatecarin-selected ABCG2-overexpressing human A549/Bec150 cells assessed as reversal fold at 2 uM measured after 72 hrs in presence of SN-38 by CCK8 assay relative to control; assay type: functional
HEK293 [10] = test: Chemo-sensitizing activity against ABCG2-overexpressing human HEK293/482R cells assessed as reversal fold at 2 uM measured after 72 hrs in presence of mitoxatrone by CCK8 assay relative to control; assay type: functional
HEK293 [11] = test: Chemo-sensitizing activity against ABCG2-overexpressing human HEK293/482R cells assessed as reversal fold at 5 uM measured after 72 hrs in presence of mitoxatrone by CCK8 assay relative to control; assay type: functional
HEK293 [12] = test: Chemo-sensitizing activity against human HEK293 cells assessed as reversal fold at 1 uM measured after 72 hrs in presence of SN-38 by CCK8 assay relative to control; assay type: functional
HEK293 [13] = test: Chemo-sensitizing activity against ABCG2-overexpressing human HEK293/482R cells assessed as reversal fold at 5 uM measured after 72 hrs in presence of SN-38 by CCK8 assay relative to control; assay type: functional
OVCAR-8 [14] = test: Chemo-sensitizing activity against human OVCAR-8 cells assessed as reversal fold at 2 uM measured after 72 hrs in presence of vincristine by CCK8 assay relative to control; assay type: functional
OVCAR-8 [15] = test: Chemo-sensitizing activity against human OVCAR-8 cells assessed as reversal fold at 5 uM measured after 72 hrs in presence of vincristine by CCK8 assay relative to control; assay type: functional
OVCAR-8 [16] = test: Chemo-sensitizing activity against human OVCAR-8 cells assessed as reversal fold at 1 uM measured after 72 hrs in presence of colchicine by CCK8 assay relative to control; assay type: functional
NCI/ADR-RES [17] = test: Chemo-sensitizing activity against ABCB1-overexpressing human NCI/ADR-RES cells assessed as reversal fold at 1 uM measured after 72 hrs in presence of colchicine by CCK8 assay relative to control; assay type: functional
NCI/ADR-RES [18] = test: Chemo-sensitizing activity against ABCB1-overexpressing human NCI/ADR-RES cells assessed as reversal fold at 5 uM measured after 72 hrs in presence of colchicine by CCK8 assay relative to control; assay type: functional
KB 3-1 [19] = test: Chemo-sensitizing activity against human KB 3-1 cells assessed as reversal fold at 5 uM measured after 72 hrs in presence of vincristine by CCK8 assay relative to control; assay type: functional
KB-V1 = test: Chemo-sensitizing activity against ABCB1-overexpressing human KB-V1 cells assessed as reversal fold at 2 uM measured after 72 hrs in presence of vincristine by CCK8 assay relative to control; assay type: functional
KB 3-1 [20] = test: Chemo-sensitizing activity against human KB 3-1 cells assessed as reversal fold at 1 uM measured after 72 hrs in presence of paclitaxel by CCK8 assay relative to control; assay type: functional
HEK293 [21] = test: Chemo-sensitizing activity against human HEK293 cells assessed as reversal fold at 2 uM measured after 72 hrs in presence of vincristine by CCK8 assay relative to control; assay type: functional
HEK293 [22] = test: Chemo-sensitizing activity against human HEK293 cells assessed as reversal fold at 5 uM measured after 72 hrs in presence of vincristine by CCK8 assay relative to control; assay type: functional
ABCG2 [23] = biological target: T1, ABCG2 (Homo sapiens, UniProt Q9UNQ0); test: Inhibition of ABCG2 in mitoxantrone-selected ABCG2-overexpressing human NCI-H460/MX20 cells assessed as increase in intracellular mitoxantrone accumulation at 20 uM incubated for 1 hr in presence of mitoxantrone by flow cytometry; assay type: cell-based; details: probe mitoxantrone
T1 sequence (Q9UNQ0 whole entry): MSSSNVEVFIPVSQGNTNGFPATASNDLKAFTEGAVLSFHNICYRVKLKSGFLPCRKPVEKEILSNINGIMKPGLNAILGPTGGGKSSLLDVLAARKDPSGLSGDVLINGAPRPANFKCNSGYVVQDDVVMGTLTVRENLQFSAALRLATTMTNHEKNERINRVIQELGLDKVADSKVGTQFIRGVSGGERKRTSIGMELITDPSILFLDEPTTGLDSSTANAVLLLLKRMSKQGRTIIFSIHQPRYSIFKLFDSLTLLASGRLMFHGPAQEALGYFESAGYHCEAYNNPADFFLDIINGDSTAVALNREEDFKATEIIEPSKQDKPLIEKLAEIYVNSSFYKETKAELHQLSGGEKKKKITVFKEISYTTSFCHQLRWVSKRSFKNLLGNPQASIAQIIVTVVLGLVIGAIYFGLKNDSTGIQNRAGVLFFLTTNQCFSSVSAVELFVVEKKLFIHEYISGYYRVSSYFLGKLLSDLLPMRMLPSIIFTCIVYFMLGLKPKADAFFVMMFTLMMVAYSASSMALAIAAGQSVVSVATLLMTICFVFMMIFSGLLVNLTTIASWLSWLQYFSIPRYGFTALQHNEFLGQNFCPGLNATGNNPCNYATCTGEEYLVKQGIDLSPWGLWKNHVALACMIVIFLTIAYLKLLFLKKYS

[24] = biological target: T2, Broad substrate specificity ATP-binding cassette transporter ABCG2 (Homo sapiens, UniProt Q9UNQ0); test: Inhibition of ABCG2 in becatecarin-selected ABCG2-overexpressing human A549/Bec150 cells assessed as increase in intracellular mitoxantrone accumulation incubated for 1 hr in presence of mitoxantrone by flow cytometry; assay type: cell-based
T2 sequence (Q9UNQ0 whole entry): T1 sequence (Q9UNQ0 whole entry)

[25] = Cytotoxicity against human HEK293 cells assessed as cell viability at 1 to 5 uM measured after 72 hrs by CCK8 assay; assay type: cell-based; details: dose 1-5 µM, read-out: Activity

## C=C(C)[C@H](CC=C(C)C)Cc1c(O)cc(O)c2c1O[C@H](c1ccc(O)cc1O)CC2=O [SOPHORAFLAVANONE G]
ABCG2 [1]
  selectivity ratio: 0.8
NCI-H460 [2]
  fold change (FC): 2.3
NCI-H460 [3]
  fold change (FC): 2.4
NCI-H460 [4]
  fold change (FC): 2.6
NCI/ADR-RES [5]
  fold change (FC): 1.1
A549 [6]
  fold change (FC): 2.7
A549 [7]
  fold change (FC): 1.4
A549 [8]
  fold change (FC): 1.7
A549 [9]
  fold change (FC): 2.7
HEK293 [10]
  fold change (FC): 3.2
HEK293 [11]
  fold change (FC): 5.6
HEK293 [12]
  fold change (FC): 1
HEK293 [13]
  fold change (FC): 6.4
OVCAR-8 [14]
  fold change (FC): 1
OVCAR-8 [15]
  fold change (FC): 1.7
OVCAR-8 [16]
  fold change (FC): 1
NCI/ADR-RES [17]
  fold change (FC): 0.9
NCI/ADR-RES [18]
  fold change (FC): 0.7
KB 3-1 [19]
  fold change (FC): 1.7
KB-V1
  fold change (FC): 1.1
KB 3-1 [20]
  fold change (FC): 0.9
HEK293 [21]
  fold change (FC): 0.6
HEK293 [22]
  fold change (FC): 0.9
ABCG2 [23]
  inhibition at 1 h, 20 µM: 100%
[24]
  pIC50: 5.64
[24]; human, a549, 1 h, time 1 hrs
  inhibition (INH): Dose-dependent effect
[25]
  viability at 72 h, 5 µM: > 90%

Reference: ChEMBL document CHEMBL5055643, “Sophoraflavanone G Resensitizes ABCG2-Overexpressing Multidrug-Resistant Non-Small-Cell Lung Cancer Cells to Chemotherapeutic Drugs” (J Nat Prod, 2021)
